According to patent US20180072666A1, “ENOYL REDUCTASE INHIBITORS WITH ANTIBACTERIAL ACTIVITY” (Novalex Therapeutics, Inc., priority 2016, published 2018):
Values after ≈ are worked out from the molar mass of the structure shown. Read-outs that look alike come from different tables or passages of the source.

Experiments:
S. aureus strain RN4220 = assay: microbe, parasite or virus in culture; assay type: cell-based; conditions: Staphylococcus aureus, RN4220, read-out: MIC S. aureus RN4220 WT
[1] = tested on: E. coli tolC- (strain BW25113, efflux pump mutant); assay: microbe, parasite or virus in culture; assay type: cell-based; conditions: Escherichia coli, BW25113, read-out: MIC E. coli TolC-
[2] = target: Acinetobacter baumannii FabI (AbFabI) (Acinetobacter baumannii, UniProt A0ABX6CD96); assay: biochemical; assay type: biochemical; conditions: read-out: Enzyme inhibition or IC50 with AbFabl
[3] = target: T1, Staphylococcus aureus FabI (SaFabI) (Staphylococcus aureus, UniProt Q6GI75); assay: biochemical; assay type: biochemical
T1 sequence (Q6GI75 1-256): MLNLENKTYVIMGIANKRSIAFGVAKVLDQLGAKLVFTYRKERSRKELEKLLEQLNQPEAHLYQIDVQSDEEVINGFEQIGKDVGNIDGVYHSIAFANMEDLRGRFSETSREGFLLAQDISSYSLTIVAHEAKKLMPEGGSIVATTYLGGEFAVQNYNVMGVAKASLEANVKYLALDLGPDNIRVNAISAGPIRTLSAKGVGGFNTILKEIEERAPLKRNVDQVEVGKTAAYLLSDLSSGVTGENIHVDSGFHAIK

[4] = tested on: F. tularensis (strain Utah); assay: microbe, parasite or virus in culture; assay type: cell-based; conditions: Francisella tularensis, read-out: MIC F. tularensis strain Utah
E. coli strain BW25113 = assay: microbe, parasite or virus in culture; assay type: cell-based; conditions: Escherichia coli, BW25113, read-out: MIC E. coli BW25113 WT
S. aureus strain Newman = assay: MIC determination, S. aureus Newman; assay type: cell-based; conditions: Staphylococcus aureus, read-out: MIC S. aureus Newman WT
[5] = 200 nM enzyme, 300 μM crotonyl-coenzymeA, 200 μM NADPH, pH 5.5, read-out: Enzyme inhibition or IC50 with SaFabl
[6] = TSB media, 37° C. overnight, first clear well

Structure (SMILES)	MIC (S. aureus strain RN4220) [µg/mL]	MIC [1] [µg/mL]	IC50 ([2]; pH 5.5) [µM]	IC50 [3, 5] [µM]	MIC [4] [µg/mL]	MIC (E. coli strain BW25113) [µg/mL]	MIC (S. aureus strain Newman) [µg/mL]	IC50 [2] [µM]	IC50 [3] [µM]	MIC (S. aureus strain Newman; [6]) [µg/mL]
CC(=O)Nc1ccc(/C=C/C(=O)N2CCC(c3ccccc3)C2)cn1 (centres unmarked)	> 200	12.5 (≈ 37.3 µM)	0.47	1.2	> 200	> 200	–	–	–	–
COc1ccccc1C1CCN(C(=O)/C=C/c2ccc(NC(C)=O)nc2)C1 (centres unmarked)	12.5 to 25 (≈ 34.2 to 68.4 µM)	0.75 (≈ 2.05 µM)	0.42	3.5	12.5 (≈ 34.2 µM)	> 200	12.5 to 25 (≈ 34.2 to 68.4 µM)	–	–	–
COc1ccccc1C1CCN(C(=O)Cc2ccccc2Cl)C1 (centres unmarked)	12.5 to 25 (≈ 37.9 to 75.8 µM)	> 200	–	0.5	50 (≈ 152 µM)	–	–	0.88	–	–
CC(=O)Nc1ccc(/C=C/C(=O)N2CCC(c3ccccn3)C2)cn1 (centres unmarked)	> 100	100 (≈ 297 µM)	–	28.4	> 100	> 100	–	5	–	–
CC(=O)Nc1ccc(/C=C/C(=O)N2CCC(c3ccc4c(c3)OCO4)C2)cn1 (centres unmarked)	> 200	> 100	8.5	1.1	> 200	> 100	–	–	–	–
CC(=O)Nc1ccc(/C=C/C(=O)N2CCC(c3nccs3)C2)cn1 (centres unmarked)	> 100	> 100	–	4.5	> 100	> 100	–	10 to 20	–	–
O=C(Cc1ccccc1Cl)N1CCC(c2nccs2)C1 (centres unmarked)	50 (≈ 163 µM)	> 100	–	6	200 (≈ 652 µM)	–	–	14	–	–
O=C(Cc1ccccc1Cl)N1CCC(c2ccccc2)C1 (centres unmarked)	12.5 (≈ 41.7 µM)	–	3.1	10.7	25 (≈ 83.4 µM)	> 200	12.5 to 25 (≈ 41.7 to 83.4 µM)	–	–	–
O=C(Cc1ccccc1Cl)N1CCC(c2ccc3c(c2)OCO3)C1 (centres unmarked)	12.5 (≈ 36.4 µM)	–	–	2.5	25 (≈ 72.7 µM)	> 200	6.25 to 12.5 (≈ 18.2 to 36.4 µM)	3.7	–	–
O=C(Cc1ccccc1Cl)N1CCC(c2ccccn2)C1 (centres unmarked)	100 (≈ 332 µM)	> 200	30.7	18.4	200 (≈ 665 µM)	–	–	–	–	–
CC(=O)Nc1ccc(CC(=O)N2CCC(c3ccccc3)C2)cc1 (centres unmarked)	> 200	200 (≈ 620 µM)	–	–	200 (≈ 620 µM)	–	–	> 100	–	–
COc1ccccc1C1CCN(C(=O)Cc2ccc(NC(C)=O)cc2)C1 (centres unmarked)	> 200	> 200	–	–	> 200	–	–	> 100	–	–
CC(=O)Nc1ccc(CC(=O)N2CCC(c3ccc4c(c3)OCO4)C2)cc1 (centres unmarked)	> 200	> 200	–	–	> 200	–	–	> 100	–	–
COc1ccc(C2CCN(C(=O)Cc3ccc(NC(C)=O)cc3)C2)cc1 (centres unmarked)	> 200	> 200	–	–	> 200	–	–	> 100	–	–
COc1ccc(C2CCN(C(=O)/C=C/c3ccc(NC(C)=O)nc3)C2)cc1 (centres unmarked)	> 200	> 200	–	–	> 200	–	–	> 100	3.55	–
CC(=O)Nc1ccc(CC(=O)N2CCC(c3nccs3)C2)cc1 (centres unmarked)	> 200	> 200	–	–	> 200	–	–	> 100	–	–
COc1ccc(C2CCN(C(=O)Cc3ccccc3Cl)C2)cc1 (centres unmarked)	100 (≈ 303 µM)	100 (≈ 303 µM)	–	12.5	12.5 (≈ 37.9 µM)	–	–	–	–	–
CC(C)S(=O)(=O)c1ccc(CC(=O)N2CCC(c3ccc4c(c3)OCO4)C2)cc1 (centres unmarked)	> 200	> 200	–	–	100 (≈ 241 µM)	–	–	> 100	–	–
O=C(Cc1c(F)cccc1Cl)N1CCC(c2ccc3c(c2)OCO3)C1 (centres unmarked)	25 (≈ 69.1 µM)	> 200	–	1.8	25 (≈ 69.1 µM)	–	–	> 100	–	–
O=C(Cc1ccccc1F)N1CCC(c2ccccc2)C1 (centres unmarked)	50 (≈ 176 µM)	> 200	–	5	50 (≈ 176 µM)	–	–	2.5	–	50 to 100 (≈ 176 to 353 µM)
O=C(Cc1c(F)cccc1F)N1CCC(c2ccccc2)C1 (centres unmarked)	50 (≈ 166 µM)	> 200	–	1.9	50 (≈ 166 µM)	–	–	6.9	–	50 to 100 (≈ 166 to 332 µM)
O=C(Cc1cccc(F)c1F)N1CCC(c2ccccc2)C1 (centres unmarked)	50 (≈ 166 µM)	> 200	–	7.3	25 to 50 (≈ 83 to 166 µM)	–	–	9.3	–	50 to 100 (≈ 166 to 332 µM)
COc1ccccc1C1CCN(C(=O)/C=C/c2ccc(NC(C)=O)cc2)C1 (centres unmarked)	> 200	> 200	–	–	> 200	–	–	–	–	–
COc1ccccc1C1CCN(C(=O)Cc2ccccc2F)C1 (centres unmarked)	50 to 100 (≈ 160 to 319 µM)	> 200	–	4.6	50 to 100 (≈ 160 to 319 µM)	–	–	1.9	–	50 to 100 (≈ 160 to 319 µM)
COc1ccccc1C1CCN(C(=O)Cc2c(F)cccc2F)C1 (centres unmarked)	50 to 100 (≈ 151 to 302 µM)	> 200	–	5.7	50 to 100 (≈ 151 to 302 µM)	–	–	1.6	–	50 to 100 (≈ 151 to 302 µM)
COc1ccccc1C1CCN(C(=O)Cc2cccc(F)c2F)C1 (centres unmarked)	100 (≈ 302 µM)	> 200	–	3	50 (≈ 151 µM)	–	–	7.4	–	–
O=C(Cc1ccccc1F)N1CCC(c2ccc3c(c2)OCO3)C1 (centres unmarked)	> 200	> 200	32	2.7	25 to 50 (≈ 76.4 to 153 µM)	–	–	–	–	–
O=C(Cc1c(F)cccc1F)N1CCC(c2ccc3c(c2)OCO3)C1 (centres unmarked)	> 200	> 200	54	2.3	> 200	–	–	–	–	–
O=C(Cc1cccc(F)c1F)N1CCC(c2ccc3c(c2)OCO3)C1 (centres unmarked)	100 (≈ 290 µM)	> 200	13.7	5.5	25 (≈ 72.4 µM)	–	–	–	–	–
